Data as given in patent publication US12060333B2 (Hoffmann-La Roche Inc., priority 2021, dated 2024).

target: SARS-CoV-2 3CLpro (Severe acute respiratory syndrome coronavirus 2, UniProt P0DTD1); assay: biochemical; conditions: IC50 (μM), SARS-CoV-2 3CLPro assay

SMILES | IC50
CC(C)C[C@H](NC(=O)OCc1ccccc1)C(=O)NN(CC1CCCNC1=O)C(=O)CCl (stereo partly drawn) [Example 20, Benzyl N-[(1S)-1-[[(2-chloroacetyl)-[(2-oxo-3-piperidyl)methyl]amino]carbamoyl]-3-methyl-butyl]carbamate] | 0.0046 µM
COc1cccc(NCC(=O)N[C@@H](CC(C)C)C(=O)NN(CCC(N)=O)C(=O)[C@@H](F)Cl)c1 (single isomer, unassigned) [Example 83-B] | 0.06 µM
NC(=O)CCN(NC(=O)[C@H](CC1CCCCC1)NC(=O)OCc1ccccc1)C(=O)[C@H](F)Cl (single isomer, unassigned) [Example 16-B] | 0.002 µM
CC(C)C[C@H](NC(=O)c1cc2ccccc2[nH]1)C(=O)NN(CC1CCNC1=O)C(=O)CCl (mixture of isomers) [Example 51, N-[(1S)-1-[[(2-Chloroacetyl)-[(2-oxo-pyrrolidin-3-yl)methyl]amino]carbamoyl]-3-methyl-butyl]-1H-indole-2-carboxamide] | 0.004 µM
CC(C)C[C@H](NC(=O)c1cc2c(Cl)cccc2[nH]1)C(=O)NN(CCC(N)=O)C(=O)[C@H](F)Cl (single isomer, unassigned) [Example 53-B] | 0.025 µM
COc1cccc2[nH]c(C(=O)N[C@@H](CC3CCCCC3)C(=O)NN(CCC(N)=O)C(=O)CCl)cc12 [Example 32, N-[(1S)-2-[2-(3-Amino-3-axo-propyl)-2-(2-chloroacetyl)hydrazino]-1-(cyclohexylmethyl)-2-axo-ethyl]-4-methoxy-1H-indole-2-carboxamide] | 0.002 µM
CC(C)C[C@H](NC(=O)c1cc2ccccc2[nH]1)C(=O)NN(CCC(N)=O)C(=O)[C@@H](F)Cl (single isomer, unassigned) [Example 41-A] | 0.005 µM
CC(C)C[C@H](NC(=O)c1cc2ccccc2[nH]1)C(=O)NN(CCC(N)=O)C(=O)CF [Example 31, N-[(1S)-1-[[(3-Amino-3-axo-propyl)-(2-fluoroacetyl)amino]carbamoyl]-3-methyl-butyl]-1H-indole-2-carboxamide] | 0.65 µM
NC(=O)CCN(NC(=O)[C@H](CC1CCCCC1)NC(=O)OCc1ccccc1)C(=O)C(F)Cl (stereo partly drawn) [Example 16, Benzyl N-[(1S)-2-[2-(3-amino-3-oxo-propyl)-2-(2-chloro-2-fluoro-acetyl)hydrazino]-1-(cyclohexylmethyl)-2-axo-ethyl]carbamate] | 0.009 µM

same assay, conditions: read-out: IC50 (μM), SARS-CoV-2 3CLPro assay

SMILES | IC50
NC(=O)CCN(NC(=O)[C@H](CC1CCCCC1)NC(=O)OCc1ccccc1)C(=O)CCl [Example 8, Benzyl N-[(1S)-2-[2-(3-amino-3-oxo-propyl)-2-(2-chloroacetyl)hydrazino]-1-(cyclohexylmethyl)-2-axo-ethyl]carbamate] | 0.008 µM
Cc1oncc1C(=O)N[C@@H](CC(C)C)C(=O)NN(CCC(N)=O)C(=O)CCl [Example 46, N-[(1S)-1-[[(3-Amino-3-oxo-propyl)-(2-chloroacetyl)amino]carbamoyl]-3-methyl-butyl]-5-methyl-isoxazole-4-carboxamide] | 0.07 µM
CC(C)C[C@H](NC(=O)c1cc2cnccc2[nH]1)C(=O)NN(CCC(N)=O)C(=O)CCl [Example 52, N-[(1S)-1-[[(3-amino-3-oxo-propyl)-(2-chloroacetyl)amino]carbamoyl]-3-methyl-butyl]-1H-pyrrolo[3,2-c]pyridine-2-carboxamide] | 0.014 µM
CC(C)C[C@H](NC(=O)c1cc2ccccn2n1)C(=O)NN(CCC(N)=O)C(=O)C(F)Cl (mixture of isomers) [Example 90, N,N-[rac-(1S)-1-[[(3-amino-3-oxo-propyl)-(2-chloro-2-fluoro-acetyl)amino]carbamoyl]-3-methyl-butyl]pyrazolo[1,5-a]pyridine-2-carboxamide] | 0.073 µM
CC(C)C[C@H](NC(=O)OC(C)(C)C)C(=O)NN(CCC(N)=O)C(=O)CCl [Example 26, tert-Butyl N-[(1S)-1-[[(3-amino-3-oxo-propyl)-(2-chloroacetyl)amino]carbamoyl]-3-methyl-butyl]carbamate] | 0.67 µM
CC(C)C[C@H](NC(=O)OCc1ccccc1)C(=O)NN(CCC(N)=O)C(=O)C(C)Cl (stereo partly drawn) [Example 4, Benzyl N-[(1S)-1-[[(3-amino-3-oxo-propyl)-(2-chloropropanoyl)amino]carbamoyl]-3-methyl-butyl]carbamate] | 0.33 µM
CCCN(NC(=O)[C@H](CC(C)C)NC(=O)OCc1ccccc1)C(=O)CCl [Example 21, Benzyl N-[(1S)-1-[[(2-chloroacetyl)-propyl-amino]carbamoyl]-3-methyl-butyl]carbamate] | 0.39 µM
NC(=O)CCN(NC(=O)[C@H](CC1CCCCC1)NC(=O)c1cc2ccccc2[nH]1)C(=O)[C@@H](F)Cl [Example 59-A, N-[(1S)-2-[2-(3-amino-3-oxo-propyl)-2-[(2S)-2-chloro-2-fluoro-acetyl]hydrazino]-1-(cyclohexylmethyl)-2-axo-ethyl]-1H-indole-2-carboxamide] | 0.023 µM
NC(=O)CCN(NC(=O)[C@H](CC1CCCC1)NC(=O)OCc1ccccc1)C(=O)CCl [Example 10, Benzyl N-[(1S)-2-[2-(3-amino-3-oxo-propyl)-2-(2-chloroacetyl)hydrazino]-1-(cyclopentylmethyl)-2-axo-ethyl]carbamate] | 0.006 µM
Cc1nc(C(=O)N[C@@H](CC(C)C)C(=O)NN(CCC(N)=O)C(=O)CCl)co1 [Example 45, N-[(1S)-1-[[(3-Amino-3-oxo-propyl)-(2-chloroacetyl)amino]carbamoyl]-3-methyl-butyl]-2-methyl-oxazole-4-carboxamide] | 0.046 µM
CC(C)C[C@H](NC(=O)OCc1ccccc1)C(=O)NN(Cc1cc[nH]n1)C(=O)CCl [Example 23, Benzyl N-[(1S)-1-[[(2-chloroacetyl)-(1H-pyrazol-3-ylmethyl)amino]carbamoyl]-3-methyl-butyl]carbamate] | 0.034 µM
COc1cccc2[nH]c(C(=O)N[C@@H](CC3CCCCC3)C(=O)NN(CCC(N)=O)C(=O)CF)cc12 [Example 37, N-[(1S)-2-[2-(3-Amino-3-axo-propyl)-2-(2-fluoroacetyl)hydrazino]-1-(cyclohexylmethyl)-2-axo-ethyl]-4-methoxy-1H-indole-2-carboxamide] | 0.038 µM
COc1cccc2[nH]c(C(=O)N[C@@H](CC3CCCCC3)C(=O)NN(CCC(N)=O)C(=O)[C@H](F)Cl)cc12 [Example 56-A, N-[(1S)-2-[2-(3-amino-3-oxo-propyl)-2-[(2R)-2-chloro-2-fluoro-acetyl]hydrazino]-1-(cyclohexylmethyl)-2-axo-ethyl]-4-methoxy-1H-indole-2-carboxamide] | 0.008 µM
CC(C)C[C@H](NC(=O)OCc1ccccc1)C(=O)NN(CC1CCNC1=O)C(=O)CCl (stereo partly drawn) [Example 18, Benzyl N-[(1S)-1-[[(2-chloroacetyl)-[(2-oxo-pyrrolidin-3-yl)methyl]amino]carbamoyl]-3-methyl-butyl]carbamate] | 0.017 µM
CC(C)C[C@H](NC(=O)OCc1ccccc1)C(=O)NN(CCC(N)=O)C(=O)C(F)Cl (stereo partly drawn) [Example 17, Benzyl N-[(1S)-1-[[(3-amino-3-oxo-propyl)-(2-chloro-2-fluoro-acetyl)amino]carbamoyl]-3-methyl-butyl]carbamate] | 0.09 µM
COc1cccc2[nH]c(C(=O)N[C@@H](CC(C)C)C(=O)NN(CCC(N)=O)C(=O)C(F)Cl)cc12 (stereo partly drawn) [Example 49, 4-Methoxy-N-[(1S)-1-[[(3-amino-3-oxo-propyl)-(2-chloro-2-fluoro-acetyl)amino]carbamoyl]-3-methyl-butyl]-1H-indole-2-carboxamide] | 0.015 µM
